For data set [1] the following is noted: cited from earlier work.
Data set [2] in a line: Pharmacokinetics of oral EVL in rats without and with coadministered curcumin. It counts as in vivo. The note with it: for AUC(0-t): male, Sprague-Dawley, rat, whole blood, po, 0.5 mg/kg, AUC0-540, area under the blood concentration-time curve from 0 to 540 min.
The target of another data set is CYP3A4 (Homo sapiens, UniProt P08684). Kind of data set: Vivid CYP450 screening kit, recombinant CYP 3A4 activity. It counts as biochemical. The following applies: recombinant CYP3A4 BACULOSOMES, probe Vivid BOMR.
The target in another data set is P-gp (Homo sapiens, UniProt P08183). The data set is described as follows: P-gp mediated transport of rhodamine 123. The data set is classed as cell-based. The following applies: LS 180 cells, 4-h incubation.
Setting [3] is: EVL 0.5 mg/kg + curcumin 50 mg/kg.
[4] abbreviates: EVL 0.5 mg/kg + curcumin 100 mg/kg.

Structures are written as SMILES.

Sequence of P-gp (P08183 whole entry): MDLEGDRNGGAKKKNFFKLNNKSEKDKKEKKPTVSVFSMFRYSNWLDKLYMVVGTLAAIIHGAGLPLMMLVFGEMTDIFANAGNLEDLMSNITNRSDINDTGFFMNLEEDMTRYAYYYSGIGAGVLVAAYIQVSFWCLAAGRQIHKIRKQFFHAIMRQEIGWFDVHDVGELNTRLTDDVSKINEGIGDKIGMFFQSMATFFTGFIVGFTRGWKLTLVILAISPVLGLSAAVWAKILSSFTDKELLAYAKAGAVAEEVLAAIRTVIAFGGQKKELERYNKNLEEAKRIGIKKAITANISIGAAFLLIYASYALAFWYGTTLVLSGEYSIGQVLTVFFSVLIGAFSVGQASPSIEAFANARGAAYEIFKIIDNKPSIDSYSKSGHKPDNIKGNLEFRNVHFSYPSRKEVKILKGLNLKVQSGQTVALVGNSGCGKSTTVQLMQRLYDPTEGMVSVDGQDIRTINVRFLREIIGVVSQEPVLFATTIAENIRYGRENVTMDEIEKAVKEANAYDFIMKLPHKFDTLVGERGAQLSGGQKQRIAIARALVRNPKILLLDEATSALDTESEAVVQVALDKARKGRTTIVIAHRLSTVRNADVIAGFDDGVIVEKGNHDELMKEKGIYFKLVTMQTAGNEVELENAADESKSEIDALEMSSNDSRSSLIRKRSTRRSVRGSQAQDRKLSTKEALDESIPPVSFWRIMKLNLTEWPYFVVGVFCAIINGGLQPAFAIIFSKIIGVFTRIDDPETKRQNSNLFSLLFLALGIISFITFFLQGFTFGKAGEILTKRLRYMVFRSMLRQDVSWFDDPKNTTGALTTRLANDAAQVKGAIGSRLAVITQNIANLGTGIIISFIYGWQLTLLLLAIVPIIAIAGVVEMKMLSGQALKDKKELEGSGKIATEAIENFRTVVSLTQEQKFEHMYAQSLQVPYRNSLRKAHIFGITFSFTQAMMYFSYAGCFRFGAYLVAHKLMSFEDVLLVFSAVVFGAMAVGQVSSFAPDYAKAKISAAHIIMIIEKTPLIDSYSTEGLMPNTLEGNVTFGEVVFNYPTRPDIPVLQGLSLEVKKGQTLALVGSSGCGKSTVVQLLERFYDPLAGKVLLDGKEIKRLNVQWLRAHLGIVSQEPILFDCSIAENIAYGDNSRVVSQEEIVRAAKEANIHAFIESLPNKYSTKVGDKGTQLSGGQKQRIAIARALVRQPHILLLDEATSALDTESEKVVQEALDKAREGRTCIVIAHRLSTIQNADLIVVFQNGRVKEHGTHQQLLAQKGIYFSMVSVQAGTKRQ
Sequence of CYP3A4 (P08684 whole entry): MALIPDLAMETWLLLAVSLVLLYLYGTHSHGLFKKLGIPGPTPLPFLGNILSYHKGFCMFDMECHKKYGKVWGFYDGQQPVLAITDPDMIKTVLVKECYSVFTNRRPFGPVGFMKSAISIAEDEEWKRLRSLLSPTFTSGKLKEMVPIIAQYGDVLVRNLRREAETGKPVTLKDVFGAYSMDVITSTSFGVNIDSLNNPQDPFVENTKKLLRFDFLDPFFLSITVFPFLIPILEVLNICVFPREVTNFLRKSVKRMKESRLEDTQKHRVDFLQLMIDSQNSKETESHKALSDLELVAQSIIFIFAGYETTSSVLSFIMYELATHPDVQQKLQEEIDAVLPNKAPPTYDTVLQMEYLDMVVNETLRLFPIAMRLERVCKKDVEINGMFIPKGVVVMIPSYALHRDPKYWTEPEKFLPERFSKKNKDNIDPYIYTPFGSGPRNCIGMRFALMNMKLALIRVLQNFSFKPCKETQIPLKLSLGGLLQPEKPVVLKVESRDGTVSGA

Consider `CO[C@H]1C[C@@H]2CC[C@@H](C)[C@@](O)(O2)C(=O)C(=O)N2CCCC[C@H]2C(=O)O[C@H]([C@H](C)C[C@@H]2CC[C@@H](OCCO)[C@H](OC)C2)CC(=O)[C@H](C)/C=C(\C)[C@@H](O)[C@@H](OC)C(=O)[C@H](C)C[C@H](C)/C=C/C=C/C=C/1C` [EVL, Everolimus], for which, in data set [1], the Half-life was 18 to 35 h and the Oral bioavailability is on record as 15–16%. Also, in data set [1] (oral), the “Time to peak concentration” value was 0.5 to 4.0 h. Besides, in data set [2] (setting [3]), the “Change of AUC0-540 versus EVL alone” value is given as −70.6% and the “Change of Cmax versus EVL alone” value is −76.7%. Moreover, in data set [2] (setting [4]), the “Change of AUC0-540 versus EVL alone” value was −71.5%, the “Change of Cmax versus EVL alone” value was −76.7% and the “Change of MRT versus EVL alone” value is on record as 35.3%. For the same molecule, in data set [2] (oral EVL 0.5 mg/kg + curcumin 50 mg/kg), the AUC(0-t) is 8.03 ng·h/mL. Also, the AUC(0-t) in data set [2] (oral EVL 0.5 mg/kg + curcumin 100 mg/kg) was 7.77 ng·h/mL. In data set [2] (oral EVL 0.5 mg/kg alone), the area under the curve AUC(0-t) is 27.3 ng·h/mL.
As to `O=C(/C=C/c1ccc(O)cc1)CC(=O)/C=C/c1ccc(O)cc1` [bis-demethoxycurcumin], on CYP3A4, the inhibition at 30 min, 0.5 µM amounted to 10% and the inhibition at 30 min, 1 µM came to 10%.
As for `COc1cc(/C=C/C(=O)CC(=O)/C=C/c2ccc(O)c(OC)c2)ccc1O` [curcumin, Diferuloylmethane], the “Decrease of the efflux function of P-gp (rhodamine 123 accumulation)” value was 13.2% on P-gp (25 μM), 16.7% at P-gp (50 μM) and 172.9% at P-gp (100 μM). In addition, on CYP3A4, the inhibition at 30 min, 5 µM amounted to 93%. Besides, at CYP3A4, the inhibition at 30 min, 10 µM amounted to 90%. The “Effect on the MRT of EVL by coadministered curcumin” value in data set [2] (curcumin 50 mg/kg oral with EVL 0.5 mg/kg) is given as “not affected”.
`COc1cc(/C=C/C(O)=C/C(=O)/C=C/c2ccc(O)cc2)ccc1O` [demethoxycurcumin]: at CYP3A4, the inhibition at 30 min, 5 µM is 21% and the inhibition at 30 min, 10 µM was found to be 53%.

The values above are taken from publication PMC5377466 (Scientific Reports, 2014).
